Reference: ChEMBL document CHEMBL1201862, “PubChem BioAssay data set” (2004)
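Exposure lasted 48 hours, with cells grown in 96-well plates and compounds tested at five concentrations. Abbreviation: GI50, concentration required for 50% inhibition of growth.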 Activity calls are given as the source filed them. Cut-off read from the data, not from the text of the source: active = GI50 up to about 1.1 µM and inactive = higher.

What was measured:
Assay in all cases: NCI-60 cell line screen, 48 h
[1] = test system: MDA-MB-231
[2] = test system: RXF 393
[3] = test system: NCI-H460
[4] = test system: KM12
[5] = test system: SF-295
[6] = test system: RPMI-8226
[7] = test system: NCI-H522
[8] = test system: COLO 205
[9] = test system: OVCAR-5
[10] = test system: OVCAR-4
[11] = test system: SW-620
[12] = test system: Malme-3M
[13] = test system: UACC-62
[14] = test system: SK-MEL-28
[15] = test system: 786-0
[16] = test system: DU-145
[17] = test system: MDA-MB-435
[18] = test system: EKVX
[19] = test system: CCRF-CEM
[20] = test system: HOP-62

Compound | GI50 [1] | GI50 [2] | GI50 [3] | GI50 [4] | GI50 [5] | GI50 [6] | GI50 [7] | GI50 [8] | GI50 [9] | GI50 [10] | GI50 [11] | GI50 [12] | GI50 [13] | GI50 [14] | GI50 [15] | GI50 [16] | GI50 [17] | GI50 [18] | GI50 [19] | GI50 [20]
O=C1C=CC(=O)[C@H]2C3C=CC(C4C3C3(Cl)C(Cl)=C(Cl)[C@]4(Cl)C3(Cl)Cl)[C@@H]12 (some centres not stated) | 4.45 µM (inactive) | 4.17 µM (inactive) | 4.02 µM (inactive) | 4.92 µM (inactive) | 12.5 µM (inactive) | 3.3 µM (inactive) | 11 µM (inactive) | 5.7 µM (inactive) | 7.46 µM (inactive) | 4.4 µM (inactive) | 9.57 µM (inactive) | 10.6 µM (inactive) | 8.83 µM (inactive) | 4.91 µM (inactive) | 5.94 µM (inactive) | 8.97 µM (inactive) | 2.51 µM (inactive) | 4.02 µM (inactive) | 2.95 µM (inactive) | 17.1 µM (inactive)
CCCC(=O)OC[n+]1ccc(-c2c(COC(=O)NC(C)C)c(COC(=O)NC(C)C)c3n2CCC3)cc1 | > 100 µM (inactive) | 34.5 µM (inactive) | 76.4 µM (inactive) | > 100 µM (inactive) | 81.7 µM (inactive) | > 100 µM (inactive) | > 100 µM (inactive) | > 100 µM (inactive) | > 100 µM (inactive) | > 100 µM (inactive) | > 100 µM (inactive) | > 100 µM (inactive) | 47 µM (inactive) | > 100 µM (inactive) | 51.9 µM (inactive) | 31.2 µM (inactive) | > 100 µM (inactive) | > 100 µM (inactive) | 44.6 µM (inactive) | 84.1 µM (inactive)
C=C1c2c(n(S(=O)(=O)c3ccccc3)c3ccccc23)[C@@]2(C(=O)OC)CC3C=CC2N1C3 | > 100 µM (inactive) | > 100 µM (inactive) | > 100 µM (inactive) | > 100 µM (inactive) | > 100 µM (inactive) | 41.3 µM (inactive) | > 100 µM (inactive) | > 100 µM (inactive) | > 100 µM (inactive) | > 100 µM (inactive) | > 100 µM (inactive) | > 100 µM (inactive) | > 100 µM (inactive) | > 100 µM (inactive) | > 100 µM (inactive) | > 100 µM (inactive) | > 100 µM (inactive) | > 100 µM (inactive) | > 100 µM (inactive) | > 100 µM (inactive)
O=C1N/N=C\c2ccc(cc2)OCc2cccc(n2)COc2ccc(cc2)/C=N\NC1=O | > 25 µM (inactive) | > 25 µM (inactive) | > 25 µM (inactive) | > 25 µM (inactive) | > 25 µM (inactive) | > 25 µM (inactive) | > 25 µM (inactive) | > 25 µM (inactive) | > 25 µM (inactive) | > 25 µM (inactive) | > 25 µM (inactive) | > 25 µM (inactive) | > 25 µM (inactive) | > 25 µM (inactive) | > 25 µM (inactive) | > 25 µM (inactive) | > 25 µM (inactive) | > 25 µM (inactive) | > 25 µM (inactive) | > 25 µM (inactive)
C#CCn1ncc2c(SCc3ccccc3)ncnc21 | > 100 µM (inactive) | > 100 µM (inactive) | > 100 µM (inactive) | > 100 µM (inactive) | 53.5 µM (inactive) | > 100 µM (inactive) | 73.1 µM (inactive) | > 100 µM (inactive) | > 100 µM (inactive) | > 100 µM (inactive) | > 100 µM (inactive) | > 100 µM (inactive) | > 100 µM (inactive) | > 100 µM (inactive) | > 100 µM (inactive) | > 100 µM (inactive) | 99.5 µM (inactive) | 97.7 µM (inactive) | 79.8 µM (inactive) | > 100 µM (inactive)
C=C1CCCC(C)(C)C1CCC1(C)CCC(C(C)C(=O)OC)OO1 (configuration not stated) | 9.08 µM (inactive) | 4.04 µM (inactive) | 0.908 µM (active) | 0.948 µM (active) | 4.48 µM (inactive) | 5.56 µM (inactive) | 3.34 µM (inactive) | 4.92 µM (inactive) | 6.75 µM (inactive) | 4.9 µM (inactive) | 7.6 µM (inactive) | > 22.9 µM (inactive) | 5.62 µM (inactive) | 20.6 µM (inactive) | 0.36 µM (active) | 4.35 µM (inactive) | 4.05 µM (inactive) | 7.91 µM (inactive) | 2.43 µM (inactive) | 0.706 µM (active)
O=C1Nc2ccc(Br)cc2/C1=C/C(=O)c1ccccc1 | 15.5 µM (inactive) | 1.95 µM (inactive) | 18.2 µM (inactive) | 7.83 µM (inactive) | 17.8 µM (inactive) | 2.46 µM (inactive) | 2.22 µM (inactive) | 2.11 µM (inactive) | 22.5 µM (inactive) | 13.7 µM (inactive) | 2.25 µM (inactive) | 6.37 µM (inactive) | 16 µM (inactive) | 14.8 µM (inactive) | 1.67 µM (inactive) | 10.2 µM (inactive) | 16.2 µM (inactive) | 14.5 µM (inactive) | 1.9 µM (inactive) | 22.7 µM (inactive)
Cc1cc(C2(c3cc(C)c(O)c4ncccc34)OC(=O)c3ccccc32)c2cccnc2c1O | 0.0692 µM (active) | 0.741 µM (active) | < 0.001 µM (active) | 0.0668 µM (active) | 0.0299 µM (active) | 0.012 µM (active) | 0.01 µM (active) | 0.67 µM (active) | 11.3 µM (inactive) | 0.067 µM (active) | 0.0304 µM (active) | 1 µM (active) | 0.0158 µM (active) | > 10 µM (inactive) | 0.0178 µM (active) | 0.0659 µM (active) | 0.0682 µM (active) | 0.0203 µM (active) | 0.01 µM (active) | 0.0217 µM (active)
CC(=O)Nc1ccc(/C=C/[N+](=O)[O-])cc1 | 1.81 µM (inactive) | 2.07 µM (inactive) | 7.21 µM (inactive) | 5.68 µM (inactive) | 5.71 µM (inactive) | 1.66 µM (inactive) | 0.24 µM (active) | 2.53 µM (inactive) | 2.58 µM (inactive) | 2.9 µM (inactive) | 2.64 µM (inactive) | 3.29 µM (inactive) | 2 µM (inactive) | 1.83 µM (inactive) | 2.61 µM (inactive) | 5.11 µM (inactive) | 2.82 µM (inactive) | 3.13 µM (inactive) | 2.33 µM (inactive) | 7.96 µM (inactive)
C=CC(Cl)(CBr)CCC(Br)=C(C)C (configuration not stated) | 19.4 µM (inactive) | 17.5 µM (inactive) | 18.9 µM (inactive) | 20.2 µM (inactive) | 35.9 µM (inactive) | 21.1 µM (inactive) | 16.9 µM (inactive) | 17.9 µM (inactive) | 26.8 µM (inactive) | 20.8 µM (inactive) | 15.8 µM (inactive) | 17.6 µM (inactive) | 18.6 µM (inactive) | 20 µM (inactive) | 25.6 µM (inactive) | 33.3 µM (inactive) | 20.4 µM (inactive) | 35.4 µM (inactive) | 26 µM (inactive) | > 100 µM (inactive)
CC(C)=NNc1ncnc2[nH]cnc12 | 6.95 µM (inactive) | 6.87 µM (inactive) | 7.06 µM (inactive) | 5.33 µM (inactive) | 8.55 µM (inactive) | 4.83 µM (inactive) | 2.86 µM (inactive) | 5.94 µM (inactive) | 4.65 µM (inactive) | 9.95 µM (inactive) | 11.9 µM (inactive) | 49.7 µM (inactive) | 2.68 µM (inactive) | 63 µM (inactive) | 5.83 µM (inactive) | 3.85 µM (inactive) | 6.87 µM (inactive) | 12.9 µM (inactive) | 4.9 µM (inactive) | 5.12 µM (inactive)
CC1CC(Br)C(=O)O1 (configuration not stated) | > 100 µM (inactive) | > 100 µM (inactive) | > 100 µM (inactive) | > 100 µM (inactive) | > 100 µM (inactive) | 38.6 µM (inactive) | > 100 µM (inactive) | > 100 µM (inactive) | > 100 µM (inactive) | > 100 µM (inactive) | > 100 µM (inactive) | > 100 µM (inactive) | > 100 µM (inactive) | > 100 µM (inactive) | – | > 100 µM (inactive) | > 100 µM (inactive) | > 100 µM (inactive) | > 100 µM (inactive) | > 100 µM (inactive)
CCN(CC)C(=O)Cn1c(-c2ccccc2)cc2ccccc21 | 37.5 µM (inactive) | 22.9 µM (inactive) | 36.4 µM (inactive) | 38.3 µM (inactive) | – | > 10 µM (inactive) | 28 µM (inactive) | 16.6 µM (inactive) | 43.1 µM (inactive) | 66.8 µM (inactive) | 43.2 µM (inactive) | 80.4 µM (inactive) | > 10 µM (inactive) | 52.6 µM (inactive) | 45.1 µM (inactive) | 56 µM (inactive) | 34.1 µM (inactive) | 16.6 µM (inactive) | 24.3 µM (inactive) | 57.5 µM (inactive)
O=c1[nH]cc(/N=C/c2cc(Cl)cc(Cl)c2O)c(=O)[nH]1 | 48.3 µM (inactive) | 26.2 µM (inactive) | 39.9 µM (inactive) | 24.2 µM (inactive) | 47.3 µM (inactive) | 22.1 µM (inactive) | 21.5 µM (inactive) | 24.8 µM (inactive) | 88.1 µM (inactive) | 21.3 µM (inactive) | – | 20.8 µM (inactive) | 26.5 µM (inactive) | 22.9 µM (inactive) | 20.7 µM (inactive) | 23 µM (inactive) | 23.5 µM (inactive) | 30.7 µM (inactive) | 20 µM (inactive) | 26.1 µM (inactive)
